According to paper PMC9576757, “A small molecule inhibitor of the UBE2F-CRL5 axis induces apoptosis and radiosensitization in lung cancer” (Signal Transduction and Targeted Therapy, 2022):
Changes are numbered by the printed parent chain.

What was measured:
UBE2F [1] = target: T1, UBE2F (Homo sapiens, UniProt Q969M7); experiment: differential scanning fluorimetry, SYPRO orange; type: binding; settings: tested as mesylate salt; 2 μM UBE2F, 1 °C/min from 25 to 95 °C; maximum of a dose series (printed 'up to')
T1 construct: recombinant, pET-28a with His-SUMO tag cleaved by Ulp1 (un-tagged), expressed in E. coli Rosetta 2(DE3) pLysS
T1 sequence (Q969M7 1-185): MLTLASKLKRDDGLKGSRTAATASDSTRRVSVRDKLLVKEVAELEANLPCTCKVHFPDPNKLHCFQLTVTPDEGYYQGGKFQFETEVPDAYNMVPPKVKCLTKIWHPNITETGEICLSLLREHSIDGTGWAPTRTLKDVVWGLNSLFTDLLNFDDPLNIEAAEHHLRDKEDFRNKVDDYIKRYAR

UBE2F [2] = target: T2, UBE2F (Homo sapiens, UniProt Q969M7, F153A/D154A/H165A); experiment: thermal shift assay with Western blotting; type: binding; settings: N152 pocket mutant
T2 construct: recombinant, pET-28a with His-SUMO tag cleaved by Ulp1 (un-tagged), expressed in E. coli Rosetta 2(DE3) pLysS
T2 sequence (Q969M7 1-185 F153A/D154A/H165A): T1 sequence (Q969M7 1-185) with F153A, D154A, H165A

UBE2F [3] = target: T3, UBE2F (Homo sapiens, UniProt Q969M7, K97A/K99A/R121A); experiment: thermal shift assay with Western blotting; type: binding; settings: V98 pocket mutant
T3 construct: recombinant, pET-28a with His-SUMO tag cleaved by Ulp1 (un-tagged), expressed in E. coli Rosetta 2(DE3) pLysS
T3 sequence (Q969M7 1-185 K97A/K99A/R121A): T1 sequence (Q969M7 1-185) with K97A, K99A, R121A

UBE2F [4] = target: T1, UBE2F; experiment: E2 NEDD8 thioester assay, iFluor 680-NEDD8, SDS-PAGE fluorescence scan; type: biochemical

Q: Which dTm (UBE2F [1]) does the source give for `Cc1ccc(C(=O)N2CCN(c3ccc(NC(=O)/C=C/c4c[nH]c5ncccc45)cc3)CC2)cc1` [iV26-9-10-4, HA-9104] here?
A: ~ 4 °C

Q: And the thermal stabilization (UBE2F [2])?
A: N152 mutant was very thermo-stable and largely resistant to HA-9104-induced stabilization

Q: And the thermal stabilization (UBE2F [3])?
A: V98 mutant was a little more thermo-stable and less stabilized by HA-9104

Q: And the IC50 (UBE2F [4])?
A: ~49 µM
